From patent publication US12458630B2, “Combination therapy for cancer” (The Regents of the University of California, priority 2020, dated 2025)
“Also recorded” adds a separate entry of the source.

Columns and labels:
Kras^G12D;Ikkα^ΔPEC mice = experiment: Autochthonous PDAC model; format: in vivo, mouse
Procedure: (§1) To evaluate the effects of MP on tumor growth in the autochthonous model, Kras^G12D;Ikkα^Δpan mice, at 4 weeks of age, were treated with vehicle or 10 mg/kg EIPA (Sigma) by intraperitoneal injection every other day for 1 month. After that, surgically removed pancreata were weighed and used for further analysis. To evaluate the effects of MP on heterotopic xenografts, female homozygous BALB/c Nu/Nu nude mice were injected subcutaneously (s.c.) in both flanks at 7 weeks of age with 10^6 parental and IKKα KO MIA PaCa-2 cells mixed at a 1:1 dilution with BD Matrigel (BD Biosciences) in a total volume of 100 μl. Mice were treated with EIPA (7.5 mg/kg) for 15 days when tumors attained an average volume of 50-100 mm^3. As a control, animals treated with vehicle (DMSO in PBS) were used. Volumes (1/2×(width^2×length)) of s.c. tumors were calculated on the basis of measurements using digital calipers after 15 days of treatment. To evaluate the combination effects of autophagy and MP inhibition on tumor growth, C57BL/6 mice were injected s.c. at 7 weeks of age with 10^7 KC6141 cells in a total volume of 100 μl. Mice were treated with vehicle, EIPA (7.5 mg/kg), MRT68921 (10 mg/kg, MCE), or EIPA and MRT68921 for 21 days when tumors attained an average volume of 100 mm^3. Tumor volumes were calculated as above.
In some embodiments, to evaluate the effects of MP on tumor growth or survival in the autochthonous model, Kras^G12D;Ikkα^ΔPEC mice, at 4 weeks of age, were treated with vehicle or 10 mg/kg EIPA (Sigma) by i.p. injection every other day for 1 month. After that, surgically removed pancreata were weighed and used for further analysis and other mice were continued to maintain for survival. To evaluate the effects of MP on heterotopic xenografts, female homozygous BALB/c Nu/Nu nude mice were injected subcutaneously (s.c.) in both flanks at 7 weeks of age with 10^6 parental and IKKα^Δ MIA PaCa-2 cells or 1334 and 1444 cells mixed at a 1:1 dilution with BD Matrigel (BD Biosciences) in a total volume of 100 μl. Mice were treated with vehicle (DMSO in PBS), EIPA (7.5 mg/kg), MRT68921 (10 mg/kg) or MRT68921 and EIPA for 15 days when tumors attained an average volume of 50-100 mm^3. Volumes (1/2×(width^2×length)) of s.c. tumors were calculated on the basis of measurements using digital calipers after 15 days of treatment. To evaluate the combination effects of autophagy and MP inhibition on tumor growth, C57BL/6 mice were injected s.c. at 7 weeks of age with 10^6 parental, Ikkα KD, Nhe1 KD or Ikkα+Nhe1 DKD KC6141 cells in a total volume of 100 μl. Mice were treated with or without vehicle, EIPA (7.5 mg/kg), MRT68921 (10 mg/kg), or EIPA and MRT68921 for 21 days when tumors attained an average volume of 50-100 mm^3. Tumor volumes were calculated as above.
Cell imaging. Immunostaining was performed as described^44. Cells were cultured on coverslips and fixed in 4% PFA for 10 min at room temperature. After washing twice in PBS, cells were incubated in PBS containing 10% FBS to block nonspecific sites of antibody adsorption. The cells were then incubated with the appropriate primary antibodies (diluted 1:100) and secondary antibodies (diluted 1:500) in PBS containing 10% FBS with or without 0.1% saponin. For cell macropinosome visualization, 24 hrs after seeding, the cells were serum starved for 18 hrs. Macropinosomes were marked using a high-molecular-mass (70 KD) TMR-Dextran (Invitrogen)-uptake assay, wherein TMR-DEX was added to serum-free medium at a final concentration of 1 mg/ml for 30 min at 37° C. At the end of the incubation period, the cells were rinsed five times in cold PBS and immediately fixed in 4% PFA. For tissue macropinosome visualization^45, fresh pancreata were cut into pieces with an approximate 5-mm cuboidal shape. A tissue section was placed in a 24-well plate and injected 150 μL of 10 mg/ml TMR-DEX solution directly into the tissue piece. Another 250 μL of diluted TMR-DEX solution were added to the well to immerse the tissue section. […]

[1] = system: parental and IKKα KO MIA PaCa-2 tumors; experiment: Heterotopic s.c. xenografts in nude mice; format: in vivo, mouse
Procedure: as §1, with “To evaluate the combination effects of autophagy and MP inhibition on tumor growth, C57BL/6 mice were injected s.c. at 7 weeks of age with 10^7 KC6141 cells in a total volume of 100 μl. Mice were treated with vehicle, EIPA (7.5 mg/kg), MRT68921 (10 mg/kg, MCE), or EIPA and MRT68921 for 21 days when tumors attained an average volume of 100 mm^3.” left out
(§2) In some embodiments, to evaluate the effects of MP on tumor growth or survival in the autochthonous model, Kras^G12D;Ikkα^ΔPEC mice, at 4 weeks of age, were treated with vehicle or 10 mg/kg EIPA (Sigma) by i.p. injection every other day for 1 month. […] Volumes (1/2×(width^2×length)) of s.c. tumors were calculated on the basis of measurements using digital calipers after 15 days of treatment. […] Tumor volumes were calculated as above.

KC6141 tumors = experiment: s.c. tumors in C57BL/6 mice; format: in vivo, mouse; conditions: EIPA 7.5 mg/kg, MRT68921 10 mg/kg, 21 days (3 weeks)
Procedure: as §1, with “To evaluate the combination effects of autophagy and MP inhibition on tumor growth, C57BL/6 mice were injected s.c. at 7 weeks of age with 10^7 KC6141 cells in a total volume of 100 μl. Mice were treated with vehicle, EIPA (7.5 mg/kg), MRT68921 (10 mg/kg, MCE), or EIPA and MRT68921 for 21 days when tumors attained an average volume of 100 mm^3.” left out
as §2

KC6141 cells = experiment: L-Amino acid assay; format: cell-based, mouse; conditions: 0.5 mM glucose, 24 hrs; for amino acid content: KC6141 cells on ECM
Procedure: Extracellular Matrix (ECM) Preparation. Skin fibroblasts were seeded on 6/12/96-well plates. One day after plating, cells were switched into DMEM (with pyruvate) with 10% dialysed FBS supplemented with or without 500 μM ^3H-proline and 100 μM Vitamin C. Cells were cultured for 6 days with media renewal every 24 h. After six days, skin fibroblasts were removed by washing in 1 ml or 500 μl or 100 μl per well PBS with 0.5% (v/v) Triton X-100 and 20 mM NH4OH. ECM was washed five times with PBS before plating KC6141 cells. The following day, KC6141 cells were switched into the indicated medium for 24 or 72 hrs.
L-Amino Acid Assay. Total amount of free L-amino acids (except for glycine) were measured by L-Amino Acid Assay Kit (Colorimetric) (antibodies) according to manufacturer's protocol. Briefly, KC6141 cells were grown on 6-well plates coated with or without ECM and treated as above. The cells were resuspended at 10^6 cells/mL 1× Assay Buffer and were homogenized on ice and then centrifuged to remove debris. 50 μL of each L-Alanine standard or cell lysis was added into wells of a 96-well microtiter plate. Then 50 μL of Reaction Mix was added to each well. The well contents were mixed thoroughly and incubated for 90 minutes at 37° C. protected from light. The plate was read with a spectrophotometric microplate reader in the 540-570 nm range. The concentration of L-Amino Acids was calculated within samples by comparing the sample OD to the standard curve.

[2] = 10 mg/kg EIPA for 1 month vs vehicle

SMILES	residual cancer tissue (histological analysis) (Kras^G12D;Ikkα^ΔPEC mice; 10 mg/kg EIPA for 1 month)	IHC: acinar cell loss (amylase up, CK19 and SOX9 down) (Kras^G12D;Ikkα^ΔPEC mice; [2])	MP in TMR-DEX injected pancreata (Kras^G12D;Ikkα^ΔPEC mice; [2])	histology (H&E): ADM, advanced PanIN formation, normal parenchyma (Kras^G12D;Ikkα^ΔPEC mice; [2])	pancreatic weight (a measure of tumor growth) (Kras^G12D;Ikkα^ΔPEC mice; 10 mg/kg EIPA i.p. every other day for 1 month, from 1 month of age, vs vehicle)	survival (Kaplan-Meier) (Kras^G12D;Ikkα^ΔPEC mice; 10 mg/kg EIPA vs vehicle, n=12)	growth of IKKα-deficient tumors / their EIPA sensitivity vs parental ([1]; IKKα KO (IKKα^Δ) MIA PaCa-2 tumors, EIPA 7.5 mg/kg for 15 days)	tumor size ([1]; parental and IKKα KO MIA PaCa-2 tumors, EIPA 7.5 mg/kg for 15 days vs vehicle)	tumor growth (KC6141 tumors)	amino acid content (KC6141 cells)	amino acid content in p62/NRF2 ablated cells (KC6141 cells; p62 KD or Nrf2 KD KC6141 cells on ECM)
CCN(c1nc(N)c(C(=O)N=C(N)N)nc1Cl)C(C)C [EIPA, 5-(N-ethyl-N-isopropyl) amiloride]	very little residual cancer tissue; also recorded: little residual cancer tissue	prevented acinar cell loss	decreased MP	inhibited acinar-to-ductal metaplasia (ADM) and advanced pancreatic intraepithelial neoplasia (PanIN) formation, and preserved the normal pancreatic parenchyma	markedly reduced; also recorded: significantly reduced	substantially extended; also recorded: enhanced the percent survival rate	strongly inhibited; also recorded: more EIPA sensitive	reduced tumor size in both groups; also recorded: significantly suppressed	small effect	reduced	ineffective
CN1CCc2cc(Nc3ncc(C4CC4)c(NCCCNC(=O)C4CCC4)n3)ccc2C1 [MRT68921]									small effect	further elevated	
